Columns and labels:
[1] = biological target: T1, recombinant human 5-HT6 receptor (Homo sapiens, UniProt P50406); assay: Radioligand binding, [3H]LSD competition in HEK293 cell membranes; settings: [3H]LSD displacement, pH 7.4, 37° C., read-out: pKi for 5-HT6 (converted)
T1 construct: expressed in transfected cells
Description: (§1) The binding activity of compounds of this invention in vitro was determined as follows. Duplicate determinations of 5-HT6 ligand affinity were made by competing for binding of [^3H]LSD in cell membranes derived from HEK293 cells stably expressing recombinant human 5-HT6 receptor. Duplicate determinations of 5-HT2A ligand affinity were made by competing for binding of [^3H]Ketanserin (3-(2-(4-(4-fluorobenzoyl)piperidinol)ethyl)-2,4(1H, 3H)-quinazolinedione) in cell membranes derived from CHO-K1 cells stably expressing recombinant human 5-HT2A receptor. Membranes were prepared from HEK 293 cell lines by the method described by Monsma et al., Molecular Pharmacology, Vol. 43 pp. 320-327 (1993), and from CHO-K1 cell lines as described by Bonhaus et al., Br J. Pharmacol. June; 115(4):622-8 (1995).
(§2) For estimation of affinity at the 5-HT6 receptor, all determinations were made in assay buffer containing 50 mM Tris-HCl, 10 mM MgSO4, 0.5 mM EDTA, 1 mM ascorbic acid, pH 7.4 at 37° C., in a 250 microliter reaction volume. […]
(§3) Assay tubes containing [^3H] […] LSD or [^3H]Ketanserin were determined as radioactive counts per minute using Packard TopCount.
(§4) Displacement of [^3H]LSD or [^3H]Ketanserin from the binding sites was quantified by fitting concentration-binding data to a 4-parameter logistic equation: […]

[2] = biological target: T2, recombinant human 5-HT2A receptor (Homo sapiens, UniProt P28223); assay: Radioligand binding, [3H]Ketanserin competition in CHO-K1 cell membranes; settings: [3H]Ketanserin displacement, pH 7.4, 32° C., read-out: pKi for 5-HT2A (converted)
T2 construct: expressed in transfected cells
T2 sequence (P28223 whole entry): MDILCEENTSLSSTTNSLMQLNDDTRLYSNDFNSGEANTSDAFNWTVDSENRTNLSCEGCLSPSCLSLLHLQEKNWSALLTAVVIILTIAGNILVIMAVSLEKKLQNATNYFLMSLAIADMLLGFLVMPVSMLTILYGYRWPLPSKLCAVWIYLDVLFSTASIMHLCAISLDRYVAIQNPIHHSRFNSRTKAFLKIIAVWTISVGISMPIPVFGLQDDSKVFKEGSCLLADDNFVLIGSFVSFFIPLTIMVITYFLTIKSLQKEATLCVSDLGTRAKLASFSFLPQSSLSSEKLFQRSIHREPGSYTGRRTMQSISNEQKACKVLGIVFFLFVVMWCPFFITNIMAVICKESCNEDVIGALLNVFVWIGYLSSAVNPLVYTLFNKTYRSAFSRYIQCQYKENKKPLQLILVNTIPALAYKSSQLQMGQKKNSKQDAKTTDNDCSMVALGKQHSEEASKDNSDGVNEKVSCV
Description: as §1, §2, §3, §4

T1 sequence (P50406 whole entry): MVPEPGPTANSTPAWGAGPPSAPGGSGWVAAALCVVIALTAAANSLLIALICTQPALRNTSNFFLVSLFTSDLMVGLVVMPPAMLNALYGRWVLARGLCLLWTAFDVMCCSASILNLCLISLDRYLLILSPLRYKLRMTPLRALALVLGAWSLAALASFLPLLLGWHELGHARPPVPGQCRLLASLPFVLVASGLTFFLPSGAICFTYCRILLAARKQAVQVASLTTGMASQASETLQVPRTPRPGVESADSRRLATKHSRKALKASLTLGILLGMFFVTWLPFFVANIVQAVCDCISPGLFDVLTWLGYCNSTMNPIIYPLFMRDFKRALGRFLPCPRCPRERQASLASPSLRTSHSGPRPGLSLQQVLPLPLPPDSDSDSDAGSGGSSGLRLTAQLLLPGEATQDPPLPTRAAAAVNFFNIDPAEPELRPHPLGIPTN

Structure (SMILES)	Ki [1]	Ki [2]
CNCc1cccc2cc(S(=O)(=O)c3ccccc3)ccc12 [Compound 1, (6-Benzenesulfonyl-naphthalen-1-ylmethyl)-methyl-amine]	~0.447 nM	
NCc1cccc2cc(S(=O)(=O)c3cccc(F)c3)ccc12 [Compound 2, C-[6-(3-Fluoro-benzenesulfonyl)-naphthalen-1-yl]-methylamine]		~5.01 nM

Reference: patent publication US7799797B2, “Arylsulfonyl naphthalene derivatives and uses thereof” (Roche Palo Alto LLC, priority 2006, dated 2010)
